Values of other authors as cited in patent US20060039891A1, “Antineoplastic-dendritic polymer drug delivery system” (priority 2001, published 2006).

Legend:
[1] = I.V. administration
[2] = system: B16F10 S.C. tumor; conditions: at maximum tolerated dose via I.V. administration

Question: What does the source list for `N.N.[Cl][Pt][Cl]` [cisplatin, cis-diamminedichloro platinate (II)]?
Answer: maximum tolerated dose [1]: about 1 mg/kg; response of B16F10 tumor models [2]: resistant
